Measured values: article PMC9437973 (Journal of medicinal chemistry, 2021)
“Also recorded” adds a separate entry of the source.

Assays:
GluN1/2A = details: cited from earlier work
GluN1/2B = details: cited from earlier work
GluN1/2C = details: cited from earlier work
GluN1/2D = details: cited from earlier work
GluN1/2B NMDA receptor = GluN1/2B NMDA receptor (Rattus norvegicus, UniProt P35439); type: cell-based; details: for current response to analog alone at GluN1/2B: 10 μM analog, continuous presence of 300 μM L-Glu
GluN1/2D NMDA receptor = GluN1/2D NMDA receptor (Rattus norvegicus, UniProt P35439); type: cell-based
[1] = target: Gly binding site in GluN1/2B receptors (Rattus norvegicus, UniProt P35439+Q00960); assay: Inhibition of Gly responses at recombinant GluN1/2B; type: cell-based
GluN1^FATL/3A receptors = GluN1^FATL/3A receptors (Rattus norvegicus, UniProt Q9R1M7); assay: Two-electrode voltage-clamp at GluN1^FATL/3A receptors; type: cell-based; details: for activation of current responses at GluN1^FATL/3A: 10 μM analog alone; for inhibition of responses to Gly at GluN1^FATL/3A: 10 μM analog in presence of Gly
GluN1^FATL/3A receptors, sequence (Q9R1M7 24-1115 isoform Q9R1M7-2 limits assumed, other chains not shown): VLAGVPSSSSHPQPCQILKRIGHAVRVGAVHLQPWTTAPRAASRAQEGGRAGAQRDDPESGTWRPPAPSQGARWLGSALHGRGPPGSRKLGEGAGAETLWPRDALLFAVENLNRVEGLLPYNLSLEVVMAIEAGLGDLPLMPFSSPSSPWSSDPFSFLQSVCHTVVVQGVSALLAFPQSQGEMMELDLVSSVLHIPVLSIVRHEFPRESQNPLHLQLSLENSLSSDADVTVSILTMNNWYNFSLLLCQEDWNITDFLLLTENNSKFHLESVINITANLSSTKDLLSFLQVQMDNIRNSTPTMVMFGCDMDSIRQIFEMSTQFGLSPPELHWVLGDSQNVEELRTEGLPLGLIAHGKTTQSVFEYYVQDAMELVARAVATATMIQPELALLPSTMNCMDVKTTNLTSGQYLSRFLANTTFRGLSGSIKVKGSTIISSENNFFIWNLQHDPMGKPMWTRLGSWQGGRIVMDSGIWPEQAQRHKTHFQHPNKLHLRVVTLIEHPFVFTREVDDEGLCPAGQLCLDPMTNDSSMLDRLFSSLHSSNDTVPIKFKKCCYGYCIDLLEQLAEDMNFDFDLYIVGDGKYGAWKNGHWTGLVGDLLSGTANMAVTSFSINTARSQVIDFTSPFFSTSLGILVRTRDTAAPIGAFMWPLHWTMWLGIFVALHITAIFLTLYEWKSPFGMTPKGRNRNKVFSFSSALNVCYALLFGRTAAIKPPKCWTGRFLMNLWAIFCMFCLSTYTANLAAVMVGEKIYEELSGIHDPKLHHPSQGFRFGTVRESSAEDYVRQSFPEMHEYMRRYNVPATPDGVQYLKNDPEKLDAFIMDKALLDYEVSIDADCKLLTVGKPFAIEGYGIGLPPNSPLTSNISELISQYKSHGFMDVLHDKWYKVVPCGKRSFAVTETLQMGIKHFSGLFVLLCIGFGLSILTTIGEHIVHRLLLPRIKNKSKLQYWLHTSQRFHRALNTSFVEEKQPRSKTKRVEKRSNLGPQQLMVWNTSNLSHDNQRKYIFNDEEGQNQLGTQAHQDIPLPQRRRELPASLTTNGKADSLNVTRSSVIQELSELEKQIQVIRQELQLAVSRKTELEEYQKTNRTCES

GluN1^FATL/3B receptors = GluN1^FATL/3B receptors (Rattus norvegicus, UniProt Q8VHN2); assay: Two-electrode voltage-clamp at GluN1^FATL/3B receptors; type: cell-based; details: for activation of current responses at GluN1^FATL/3B: 10 μM analog alone; for inhibition of responses to Gly at GluN1^FATL/3B: 10 μM analog in presence of Gly
GluN1^FATL/3B receptors, sequence (Q8VHN2 25-1002, other chains not shown): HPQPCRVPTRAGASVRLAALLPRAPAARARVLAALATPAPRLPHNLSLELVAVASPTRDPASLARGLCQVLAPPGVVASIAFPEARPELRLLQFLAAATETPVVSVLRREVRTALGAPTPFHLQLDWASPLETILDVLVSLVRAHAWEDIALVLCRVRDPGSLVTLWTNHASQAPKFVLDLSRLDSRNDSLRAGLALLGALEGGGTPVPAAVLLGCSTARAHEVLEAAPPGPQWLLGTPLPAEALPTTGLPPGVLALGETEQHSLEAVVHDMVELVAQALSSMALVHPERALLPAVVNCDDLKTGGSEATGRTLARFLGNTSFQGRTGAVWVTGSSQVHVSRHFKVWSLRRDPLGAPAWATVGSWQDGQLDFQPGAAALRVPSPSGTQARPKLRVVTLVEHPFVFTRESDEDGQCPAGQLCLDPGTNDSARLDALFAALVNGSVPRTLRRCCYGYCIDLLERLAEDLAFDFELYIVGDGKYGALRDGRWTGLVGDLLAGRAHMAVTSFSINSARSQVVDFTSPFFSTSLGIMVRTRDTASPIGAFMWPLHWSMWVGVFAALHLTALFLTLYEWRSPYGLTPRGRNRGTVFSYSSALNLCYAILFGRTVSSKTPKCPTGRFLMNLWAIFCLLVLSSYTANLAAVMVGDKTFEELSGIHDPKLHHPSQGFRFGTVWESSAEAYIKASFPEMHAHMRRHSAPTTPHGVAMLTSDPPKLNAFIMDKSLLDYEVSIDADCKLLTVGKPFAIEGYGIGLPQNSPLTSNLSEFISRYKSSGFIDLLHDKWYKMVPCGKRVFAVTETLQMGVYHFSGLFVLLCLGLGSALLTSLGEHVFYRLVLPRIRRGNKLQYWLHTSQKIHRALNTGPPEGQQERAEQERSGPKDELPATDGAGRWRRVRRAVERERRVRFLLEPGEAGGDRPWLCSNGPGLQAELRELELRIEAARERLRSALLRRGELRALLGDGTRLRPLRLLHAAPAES

GluN1/2A NMDA receptor = GluN1/2A NMDA receptor (Rattus norvegicus, UniProt P35439); type: cell-based
GluN1/2A-V783L = GluN1/2A-V783L (Rattus norvegicus, UniProt P35439); assay: Two-electrode voltage-clamp at mutated GluN1/2A-V783L receptors; type: cell-based; details: 10 μM analog; 300 μM L-Glu
GluN1/2A-V783F = GluN1/2A-V783F (Rattus norvegicus, UniProt P35439); assay: Two-electrode voltage-clamp at mutated GluN1/2A-V783F receptors; type: cell-based; details: 10 μM analog; 300 μM L-Glu
GluN1/2B-F784L = GluN1/2B-F784L (Rattus norvegicus, UniProt P35439); assay: Two-electrode voltage-clamp at mutated GluN1/2B-F784L receptors; type: cell-based; details: 10 μM analog; 300 μM L-Glu
GluN1/2B-F784V = GluN1/2B-F784V (Rattus norvegicus, UniProt P35439); assay: Two-electrode voltage-clamp at mutated GluN1/2B-F784V receptors; type: cell-based; details: 10 μM analog; 300 μM L-Glu
[2] = maximal response compared to Gly

agonist activity at GluN1/2B (in words) (GluN1/2B NMDA receptor)	agonist activity at GluN1/2D (in words) (GluN1/2D NMDA receptor)	Ki [1]	inhibition of responses to Gly at GluN1^FATL/3A (GluN1^FATL/3A receptors)	inhibition of responses to Gly at GluN1^FATL/3B (GluN1^FATL/3B receptors)	Compound	current response to analog alone at GluN1/2B (GluN1/2B NMDA receptor)	activation of current responses at GluN1^FATL/3A (GluN1^FATL/3A receptors)	activation of current responses at GluN1^FATL/3B (GluN1^FATL/3B receptors)	also measured
					CCc1ccccc1-c1cccc2[nH]c(C(=O)NC[C@@H](N)C(=O)O)cc12 [AICP, (R)-2-Amino-3-(4-(2-ethylphenyl)-1H-indole-2-carboxamido)propanoic acid]				Rmax at GluN1/2A (GluN1/2A; [2]): 100%; EC50 (GluN1/2A; read-out: EC50 at GluN1/2A, full agonism): 66 nM; Rmax at GluN1/2B (GluN1/2B; [2]): 10%; EC50 (GluN1/2B; read-out: EC50 at GluN1/2B, partial agonist): 25 nM; Rmax at GluN1/2C (GluN1/2C; [2]): 353%; EC50 (GluN1/2C; read-out: EC50 at GluN1/2C, superagonism): 1.7 nM; Rmax at GluN1/2D (GluN1/2D; [2]): 27%; EC50 (GluN1/2D; read-out: EC50 at GluN1/2D, partial agonist): 25 nM
no agonist activity	no agonist activity				N[C@H](CNC(=O)c1ccc(-c2ccccc2C(F)(F)F)o1)C(=O)O [Compound 8d, (R)-2-Amino-3-(5-(2-(trifluoromethyl)phenyl)furan-2-carboxamido)propanoic acid]				
no agonist activity		~100 nM	did not inhibit responses to Gly	did not inhibit responses to Gly	CCc1ccccc1-c1ccc(C(=O)NC[C@@H](N)C(=O)O)o1 [Compound 8h, (R)-2-Amino-3-(5-(2-ethylphenyl)furan-2-carboxamido)propanoic acid]	unable to activate any current responses; also recorded: No responses	No responses; also recorded: did not activate current responses	No responses; also recorded: did not activate current responses	
virtually no agonist activity	virtually no agonist activity	~100 nM	did not inhibit responses to Gly	did not inhibit responses to Gly	N[C@H](CNC(=O)c1ccc(-c2ccc(Cl)cc2[N+](=O)[O-])o1)C(=O)O [Compound 8p, (R)-2-amino-3-(5-(4-chloro-2-nitrophenyl)furan-2-carboxamido)propanoic acid]	unable to activate any current responses; also recorded: No responses	No responses; also recorded: did not activate current responses	No responses; also recorded: did not activate current responses	agonist activity at GluN1/2A (in words) (GluN1/2A NMDA receptor): virtually no agonist activity; maximal response relative to Gly at GluN1/2A-V783L versus wild type (GluN1/2A-V783L): reduced the maximal response; maximal response relative to Gly at GluN1/2A-V783F versus wild type (GluN1/2A-V783F): reduced the maximal response; maximal response relative to Gly at GluN1/2B-F784L versus wild type (GluN1/2B-F784L): did not significantly increase the maximal response; maximal response relative to Gly at GluN1/2B-F784V versus wild type (GluN1/2B-F784V): did not significantly increase the maximal response
